This note sets out measurements from patent US20260108546A1 (ELI LILLY AND COMPANY, priority 2024, published 2026).

The target in this assay is T1, hGIP-R (Homo sapiens, UniProt P48546).
T1 construct: expressed in transfected cells; host or cells: HEK-293 clonal cell lines
T1 sequence (P48546 22-466): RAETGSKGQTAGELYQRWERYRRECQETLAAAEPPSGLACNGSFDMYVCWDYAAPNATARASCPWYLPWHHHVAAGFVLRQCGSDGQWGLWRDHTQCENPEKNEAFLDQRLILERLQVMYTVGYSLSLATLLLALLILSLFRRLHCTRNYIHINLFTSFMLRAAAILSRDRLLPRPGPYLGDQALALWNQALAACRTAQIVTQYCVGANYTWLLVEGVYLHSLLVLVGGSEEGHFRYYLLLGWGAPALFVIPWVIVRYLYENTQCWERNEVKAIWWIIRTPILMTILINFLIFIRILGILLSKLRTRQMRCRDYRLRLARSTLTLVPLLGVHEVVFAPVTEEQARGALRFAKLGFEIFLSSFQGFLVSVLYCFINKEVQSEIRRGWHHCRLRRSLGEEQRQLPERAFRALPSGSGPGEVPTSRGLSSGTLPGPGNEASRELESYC
Briefly: Functional hGIP-R Assay (cAMP formation, HTRF). It is filed as cell-based. Particulars: for Emax: cAMP efficacy, percent of maximal response to GIP(1-42)OH, 37° C., 0.1% bovine casein, arithmetic mean ± SEM; for EC50: cAMP potency, HEK-293 cells expressing hGIP-R, incubated at 37° C. in the presence of 0.1% bovine casein, geometric mean, read-out: Human GIP-R EC50, nM (SEM, n). Put shortly: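 Relative EC50 and Emax came from four-parameter logistic fits of cAMP as a percent of the human GIP (1-42) OH maximal response. The cAMP was measured by competitive HTRF after 30 min, 37 °C compound exposure of hGIP-R HEK-293 clones in IBMX (250 μM)-containing medium.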

By Emax is commonly meant the maximal effect, on the per cent scale that the assay sets. By EC50 is commonly meant the concentration at which the effect is half-maximal. `Cn1cc(C[C@@H](NC(=O)[C@H]2C[C@@H]2c2ccc(-c3cnc4nn(C)cc4c3)cc2)C(=O)NC(C)(C)Cn2nc(C(F)(F)F)cc2-c2ccn(C[C@H]3C[C@H](F)C3)n2)cn1` [Example 67, (1S,2S)-N—((R)-1-((1-(1-(((trans)-3-fluorocyclobutyl)methyl)-5′-(trifluoromethyl)-1H,2′H-[3,3′-bipyrazol]-2′-yl)-2-methylpropan-2-yl)amino)-3-(1-methyl-1H-pyrazol-4-yl)-1-oxopropan-2-yl)-2-(4-(2-methyl-2H-pyrazolo[3,4-b]pyridin-5-yl)phenyl)cyclopropane-1-carboxamide]: the maximal effect (Emax) was 115 ± 8.68% and the EC50 turned out to be 45 nM.

Take `CC(C)(Cn1nc(C(F)(F)F)cc1-c1cn[nH]n1)NC(=O)[C@@H](Cc1cnc2ncccn12)NC(=O)[C@H]1C[C@@H]1c1ccc(-c2cnc3nc(C(F)(F)F)cn3c2)cc1` [Example 68, (1S,2S)-N—((R)-1-((1-(5-(2H-1,2,3-Triazol-4-yl)-3-(trifluoromethyl)-1H-pyrazol-1-yl)-2-methylpropan-2-yl)amino)-3-(imidazo[1,2-a]pyrimidin-3-yl)-1-oxopropan-2-yl)-2-(4-(2-(trifluoromethyl)imidazo[1,2-a]pyrimidin-6-yl)phenyl)cyclopropane-1-carboxamide]: the Emax was found to be 86.9 ± 7.93% and the EC50 came to 0.904 nM.

For `Cn1cc2cc(-c3ccc([C@H]4C[C@@H]4C(=O)N[C@H](Cc4cnc5ncccn45)C(=O)NC(C)(C)Cn4nc(C(F)(F)F)cc4-c4cn[nH]n4)cc3)cnc2n1` [Example 69, (1S,2S)-N-((R)-1-((1-(5-(2H-1,2,3-Triazol-4-yl)-3-(trifluoromethyl)-1H-pyrazol-1-yl)-2-methylpropan-2-yl)amino)-3-(imidazo[1,2-a]pyrimidin-3-yl)-1-oxopropan-2-yl)-2-(4-(2-methyl-2H-pyrazolo [3,4-b]pyridin-5-yl)phenyl)cyclopropane-1-carboxamide], the maximum response (Emax) amounted to 87.8 ± 8.06% and the concentration for a half-maximal effect (EC50) is 34 nM.

Consider `CN(C(=O)[C@H]1C[C@@H]1c1ccc(-c2cnc3nn(C)cc3c2)cc1)[C@H](Cc1cnn(C)c1)C(=O)NC(C)(C)Cn1nc(C(F)(F)F)cc1-c1cn[nH]n1` [Example 70, (1S,2S)-N-((R)-1-((1-(5-(2H-1,2,3-Triazol-4-yl)-3-(trifluoromethyl)-1H-pyrazol-1-yl)-2-methylpropan-2-yl)amino)-3-(1-methyl-1H-pyrazol-4-yl)-1-oxopropan-2-yl)-N-methyl-2-(4-(2-methyl-2H-pyrazolo [3,4-b]pyridin-5-yl)phenyl)cyclopropane-1-carboxamide], for which the Emax was found to be 102 ± 2.2% and the EC50 was 158 nM.

For `CC(C)(Cn1cc(C(F)(F)F)cn1)NC(=O)[C@@H](Cc1cnc2ncccn12)NC(=O)[C@H]1C[C@@H]1c1ccc(-c2cnc3nc(C4CC(F)(F)C4)cn3c2)cc1` [Example 74, (1S,2S)-2-(4-(2-(3,3-Difluorocyclobutyl)imidazo[1,2-a]pyrimidin-6-yl)phenyl)-N-((R)-3-(imidazo[1,2-a]pyrimidin-3-yl)-1-((2-methyl-1-(4-(trifluoromethyl)-1H-pyrazol-1-yl)propan-2-yl)amino)-1-oxopropan-2-yl)cyclopropane-1-carboxamide], the maximal effect (Emax) was 102 ± 3.65% and the concentration for a half-maximal effect (EC50) stood at 13.6 nM.

Turning to `COCc1cn2cc(-c3ccc([C@H]4C[C@@H]4C(=O)N[C@H](Cc4cnc5ncccn45)C(=O)NC(C)(C)Cn4cc(C(F)(F)F)cn4)cc3)cnc2n1` [Example 75, (1S,2S)-N-((R)-3-(Imidazo[1,2-a]pyrimidin-3-yl)-1-((2-methyl-1-(4-(trifluoromethyl)-1H-pyrazol-1-yl)propan-2-yl)amino)-1-oxopropan-2-yl)-2-(4-(2-(methoxymethyl)imidazo[1,2-a]pyrimidin-6-yl)phenyl)cyclopropane-1-carboxamide], the Emax is 119 ± 6.64% and the EC50 turned out to be 65 nM.

For the molecule `CC(C)(Cn1cc(C(F)(F)F)cn1)NC(=O)[C@@H](Cc1cnc2ncccn12)NC(=O)[C@H]1C[C@@H]1c1ccc(-c2cnc3nc(C4CC4)cn3c2)cc1` [Example 76, (1S,2S)-2-(4-(2-Cyclopropylimidazo[1,2-a]pyrimidin-6-yl)phenyl)-N-((R)-3-(imidazo[1,2-a]pyrimidin-3-yl)-1-((2-methyl-1-(4-(trifluoromethyl)-1H-pyrazol-1-yl)propan-2-yl)amino)-1-oxopropan-2-yl)cyclopropane-1-carboxamide], the maximal response (Emax) is 97.2 ± 7.63% and the EC50 was determined as 16.2 nM.

Consider `CC(C)(Cn1cc(C(F)(F)F)cn1)NC(=O)[C@@H](Cc1cnc2ncccn12)NC(=O)[C@H]1C[C@@H]1c1ccc(-c2cnc3nn(CC4CCC4)cc3c2)cc1` [Example 77, (1S,2S)-2-(4-(2-(Cyclobutylmethyl)-2H-pyrazolo[3,4-b]pyridin-5-yl)phenyl)-N-((R)-3-(imidazo[1,2-a]pyrimidin-3-yl)-1-((2-methyl-1-(4-(trifluoromethyl)-1H-pyrazol-1-yl)propan-2-yl)amino)-1-oxopropan-2-yl)cyclopropane-1-carboxamide], for which the Emax was determined as 103 ± 12% and the EC50 worked out at 88.2 nM.

`CC(C)(Cn1cc(C(F)(F)F)cn1)NC(=O)[C@@H](Cc1cnc2ncccn12)NC(=O)[C@H]1C[C@@H]1c1ccc(-c2cnc3nc(C4CCC4)cn3c2)cc1` [Example 78, (1S,2S)-2-(4-(2-Cyclobutylimidazo[1,2-a]pyrimidin-6-yl)phenyl)-N-((R)-3-(imidazo[1,2-a]pyrimidin-3-yl)-1-((2-methyl-1-(4-(trifluoromethyl)-1H-pyrazol-1-yl)propan-2-yl)amino)-1-oxopropan-2-yl)cyclopropane-1-carboxamide]: the Emax worked out at 113 ± 18.8% and the EC50 was 20.3 nM.

As to `CC(C)(Cn1cc(C(F)(F)F)cn1)NC(=O)[C@@H](Cc1cnc2ncccn12)NC(=O)[C@H]1C[C@@H]1c1ccc(-c2cnc3nc(C(F)F)cn3c2)cc1` [Example 79, (1S,2S)-2-(4-(2-(Difluoromethyl)imidazo[1,2-a]pyrimidin-6-yl)phenyl)-N-((R)-3-(imidazo[1,2-a]pyrimidin-3-yl)-1-((2-methyl-1-(4-(trifluoromethyl)-1H-pyrazol-1-yl)propan-2-yl)amino)-1-oxopropan-2-yl)cyclopropane-1-carboxamide], the maximum response (Emax) came out at 104 ± 5% and the EC50 was 25.1 nM.

For the molecule `CC(C)(Cn1cc(C(F)(F)F)cn1)NC(=O)[C@@H](Cc1cnc2ncccn12)NC(=O)[C@H]1C[C@@H]1c1ccc(-c2cnc3nc(C(C)(F)F)cn3c2)cc1` [Example 80, (1S,2S)-2-(4-(2-(1,1-Difluoroethyl)imidazo[1,2-a]pyrimidin-6-yl)phenyl)-N-((R)-3-(imidazo[1,2-a]pyrimidin-3-yl)-1-((2-methyl-1-(4-(trifluoromethyl)-1H-pyrazol-1-yl)propan-2-yl)amino)-1-oxopropan-2-yl)cyclopropane-1-carboxamide], the maximal effect (Emax) amounted to 109 ± 4.1% and the EC50 was 28.6 nM.

As to `CC(C)(Cn1cc(C(F)(F)F)cn1)NC(=O)[C@@H](Cc1cnc2ncccn12)NC(=O)[C@H]1C[C@@H]1c1ccc(-c2cnc3nc(C4(C)CC4)cn3c2)cc1` [Example 81, (1S,2S)-N-((R)-3-(Imidazo[1,2-a]pyrimidin-3-yl)-1-((2-methyl-1-(4-(trifluoromethyl)-1H-pyrazol-1-yl)propan-2-yl)amino)-1-oxopropan-2-yl)-2-(4-(2-(1-methylcyclopropyl)imidazo[1,2-a]pyrimidin-6-yl)phenyl)cyclopropane-1-carboxamide], the maximal response (Emax) amounted to 117 ± 0.667% and the concentration giving a half-maximal response (EC50) came to 33.1 nM.

For the molecule `CCc1cn2cc(-c3ccc([C@H]4C[C@@H]4C(=O)N[C@H](Cc4cnc5ncccn45)C(=O)NC(C)(C)Cn4cc(C(F)(F)F)cn4)cc3)cnc2n1` [Example 82, (1S,2S)-2-(4-(2-Ethylimidazo[1,2-a]pyrimidin-6-yl)phenyl)-N-((R)-3-(imidazo[1,2-a]pyrimidin-3-yl)-1-((2-methyl-1-(4-(trifluoromethyl)-1H-pyrazol-1-yl)propan-2-yl)amino)-1-oxopropan-2-yl)cyclopropane-1-carboxamide], the maximal effect (Emax) turned out to be 106 ± 2.58% and the EC50 was found to be 36.4 nM.

As to `Cc1cn2cc(-c3ccc([C@H]4C[C@@H]4C(=O)N[C@H](Cc4cnc5ncccn45)C(=O)NC(C)(C)Cn4cc(C(F)(F)F)cn4)cc3)cnc2n1` [Example 83, (1S,2S)-N-((R)-3-(Imidazo[1,2-a]pyrimidin-3-yl)-1-((2-methyl-1-(4-(trifluoromethyl)-1H-pyrazol-1-yl)propan-2-yl)amino)-1-oxopropan-2-yl)-2-(4-(2-methylimidazo[1,2-a]pyrimidin-6-yl)phenyl)cyclopropane-1-carboxamide], the Emax was 95.4 ± 7.12% and the EC50 stood at 44.1 nM.

Take `CC(C)(Cn1cc(C(F)(F)F)cn1)NC(=O)[C@@H](Cc1cnc2ncccn12)NC(=O)[C@H]1C[C@@H]1c1ccc(-c2cnc3nn(C4CCC4)cc3c2)cc1` [Example 84, (1S,2S)-2-(4-(2-Cyclobutyl-2H-pyrazolo[3,4-b]pyridin-5-yl)phenyl)-N-((R)-3-(imidazo[1,2-a]pyrimidin-3-yl)-1-((2-methyl-1-(4-(trifluoromethyl)-1H-pyrazol-1-yl)propan-2-yl)amino)-1-oxopropan-2-yl)cyclopropane-1-carboxamide]: the Emax was 89.7% and the EC50 is 37.8 nM.
